Reference: publication PMC11173301, “On the Cholesterol Raising Effect of Coffee Diterpenes Cafestol and 16-O-Methylcafestol: Interaction with Farnesoid X Receptor” (International Journal of Molecular Sciences, 2024)

Target: T1, FXR-LBD (FXR-WT; stabilized mutant FXR-CCEE) (Homo sapiens, UniProt Q96RI1)
T1 construct: gene NR1H4; plasmid from Prof; Jinsong Liu; CCEE = C432E/C466E
T1 sequence (Q96RI1 225-472 isoform Q96RI1-2): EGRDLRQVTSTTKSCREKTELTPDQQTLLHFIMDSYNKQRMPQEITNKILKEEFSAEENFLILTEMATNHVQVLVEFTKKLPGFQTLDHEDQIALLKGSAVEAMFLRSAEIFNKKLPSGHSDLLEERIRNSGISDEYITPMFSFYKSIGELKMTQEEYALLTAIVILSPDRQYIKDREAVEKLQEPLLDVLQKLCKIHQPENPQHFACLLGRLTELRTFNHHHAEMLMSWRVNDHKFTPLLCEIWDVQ
Experiment: intrinsic fluorescence titration, Stern-Volmer
Type: binding
Conditions: […] protein, phosphate pH […] NaCl, […] glycerol, […] °C; no inner filter correction
From the text: intrinsic fluorescence titration, Stern-Volmer on FXR-LBD (FXR-WT; stabilized mutant FXR-CCEE) | With GG, the numbers for the FXR-WT and the FXR-CCEE mutant were quite different

Stern-Volmer constant (KSV): 33650 ± 5000 L/mol
Compound: C/C=C1\C(=O)C[C@H]2[C@@H]3CCC4=CC(=O)CC[C@]4(C)[C@H]3CC[C@]12C [guggulsterone]
